Here are results for 8 compounds from article PMC3566091, “Binding of the Radioligand SIL23 to α-Synuclein Fibrils in Parkinson Disease Brain Tissue Establishes Feasibility and Screening Approaches for Developing a Parkinson Disease Imaging Agent” (PLoS ONE, 2013).

Assay [1] deals with T1, synthetic Aβ1–42 fibrils (Homo sapiens, UniProt P05067). The experiment in a line: biochemical.
Procedure: (§2) Synthetic Aβ1–42 peptide (1 mg) (Bachem, Torrance, CA) was first dissolved in 50 µl DMSO. An additional 925 µl of mQ-H2O was added. […] The dissolved peptide was incubated for 30 h at 37°C with shaking at 1000 rpm in an Eppendorf Thermomixer. […] To determine the concentration of fibrils, the fibril reaction mix was centrifuged at 15,000×g for 15 min to separate fibrils from monomer. The concentration of Aβ monomer in the supernatant was determined in a BCA protein assay using a BSA standard curve that contained DMSO at a percentage equivalent to the samples.
(§3) The prepared fibril mixture was centrifuged at 15,000×g for 15 min to prepare fibrils for binding assays.
Reactions were incubated at 37°C for 2 h before quantifying bound radioligand as described above for the saturation binding assay.
Assay [2] relates to insoluble fractions from control human brain tissue. The assay is described as follows: [125I]SIL23 saturation binding to insoluble fractions of control brain tissue. The settings on record: four control cases, listed as [^125I]SIL23. Here is the method:
Brain tissue samples were selected from an autopsy case series of patients evaluated for parkinsonism by movement disorders specialists at the Movement Disorders Center of Washington University School of Medicine in St. Louis. The clinical diagnosis of idiopathic PD was based on modified United Kingdom Parkinson’s Disease Society Brain Bank clinical diagnostic criteria with clear clinical response to levodopa. Dementia was determined by a movement disorders specialist based on clinical assessment of cognitive dysfunction sufficiently severe to impair activities of daily living, with further evaluation of cognitive impairment using the AD8 [20] and Mini-Mental Status Exam (MMSE). LB stage was assessed at autopsy using a PD staging scale (range: 0, 1–6). PD cases were selected based on a clinical diagnosis of PD plus dementia, Braak LB stage 5–6 pathology, and the absence of significant Aβ or tau pathology determined by immunohistochemistry. Control cases were selected based on the absence of α-syn, Aβ and tau pathology. Samples were used from both male and female subjects.
(§1) All data points were performed in triplicate.

In assay [3] the test system is crude PBS homogenate from control human brain. The assay is described as follows: [125I]SIL23 saturation binding to crude control brain homogenate. The following applies: unfractionated PBS homogenate. Here is the method:
as §1

The target of assay [4] is T1, synthetic Aβ1–42 fibrils.
Procedure: as §2, §3
Assay [5] concerns the target T2, recombinant tau fibrils (Homo sapiens, UniProt P10636).
Procedure: (§4) To determine the concentration of fibrils, the fibril reaction mixer was centrifuged at 15,000×g for 15 min to separate fibrils from monomer. The concentration of tau monomer in the supernatant was determined in a BCA protein assay along with a BSA standard curve. The measured decrease in monomer concentration was used to determine the concentration of tau fibrils in the 48 h fibril reaction mixture.
as §3
The subject of assay [6] is Aβ plaques in AD brain. Further details: method as in PMID 16291932. The settings on record: cited from earlier work.
In assay [7] the target is T3, recombinant α-syn fibrils (Homo sapiens, UniProt P37840). The assay is described as follows: biochemical.
Procedure: (§5) Purified recombinant α-syn monomer (2 mg/ml) was incubated in 20 mM Tris-HCl, pH 8.0, 100 mM NaCl for 72 h at 37°C with shaking at 1000 rpm in an Eppendorf Thermomixer. To determine the concentration of fibrils, the fibril reaction mix was centrifuged at 15,000×g for 15 min to separate fibrils from monomer. The concentration of α-syn monomer in the supernatant was determined in a BCA protein assay according to the manufacturer’s instructions, using a bovine serum albumin (BSA) standard curve. The measured decrease in α-syn monomer concentration was used to determine the concentration of fibrils in the 72 h fibril reaction mixture.
as §3
(§6) Reactions were incubated at 37°C for 2 h before quantifying bound radioligand as described above for the saturation binding assay. All data points were performed in triplicate.
Assay [8] deals with T4, Human PD brain homogenate (insoluble fraction) (Homo sapiens, UniProt P37840). The assay is described as follows: biochemical.
Procedure: as §6
Assay [9] concerns the target T2, recombinant tau fibrils. The assay is described as follows: biochemical.
Procedure: as §4, §3, §6
Assay [10] concerns the target T3, recombinant α-syn fibrils. The settings on record: read-out: Ki, α-Syn fibrils; 200 nM [125I]SIL23, 1 µM fibrils; Ki from EC50; 95% confidence interval in parentheses.
Procedure: as §5, §3, §6
For assay [11], the target named is T4, Human PD brain homogenate (insoluble fraction). The settings on record: read-out: Ki, Human PD brain homogenate; 200 nM [125I]SIL23, 10 µg insoluble fraction/150 µl; 95% confidence interval in parentheses.
Procedure: as §6
Assay [12] deals with PD tissue. Further details: method as in PMID 19576880. The following applies: cited from earlier work.
Assay [13] deals with Aβ plaques in AD brain. The settings on record: cited from earlier work.

Read-outs that look alike come from different tables or passages of the source.

T1 sequence (P05067 672-713 limits assumed): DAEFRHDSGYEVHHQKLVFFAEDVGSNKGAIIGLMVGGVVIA
T2 sequence (P10636 560-692): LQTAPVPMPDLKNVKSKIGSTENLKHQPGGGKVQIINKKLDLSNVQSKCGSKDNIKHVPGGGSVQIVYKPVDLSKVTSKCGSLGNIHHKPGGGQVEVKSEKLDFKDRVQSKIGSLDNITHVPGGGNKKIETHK

In assay [1], `COc1ccc2c(c1)Sc1cc([N+](=O)[O-])ccc1N2` [SIL5] had a Ki of 110 nM.
Consider `O=[N+]([O-])c1ccc2c(c1)Sc1cc(OC/C=C/I)ccc1N2` [SIL23], for which the “[125I]SIL23 binding in control cases” value in assay [2] was “no significant [^125I]SIL23 binding”. In addition, the “[125I]SIL23 binding in crude homogenate of a control case” value in assay [3] is “no significant binding”; in assay [3] (listed as [^125I]SIL23), “No significant specific binding”. Besides, the “Bmax of [125I]SIL23 binding to Aβ1–42 fibrils” value in assay [4] came to 23.7 pmol/nmol. For the same compound, the “Bmax of [125I]SIL23 binding to tau fibrils” value in assay [5] came out at 4.57 pmol/nmol.
`CNc1ccc(-c2nc3ccc(O)cc3s2)cc1` [PiB, Pittsburgh Compound B]: the “average Bmax (binding site density) for PiB binding in AD brain” value in assay [6] (AD brain) is 1407 pmol/g wet weight. Besides, in assay [6] (read-out: Kd for PiB binding to Aβ plaques), the equilibrium dissociation constant (Kd) is 2.5 nM. Further, the results for the Ki in assay [7] and in assay [8] were 116 nM and 99.2 nM, respectively.
On to `O=C(O)c1cc(/N=N/c2ccc(-c3ccc(/N=N/c4ccc(O)c(C(=O)O)c4)cc3)cc2)ccc1O` [Chrysamine G], for which the Ki in assay [7] turned out to be 432 nM; in assay [8], 367 nM.
Take `O=[N+]([O-])c1ccc2c(c1)Sc1cc(Br)ccc1N2` [SIL22]: the Ki was determined as 102 nM in assay [1] and 173 nM in assay [9].
As to `CN(C)c1ncc(/C=C/c2nc3ccc(OCCF)cc3o2)s1` [BF227], the Ki amounted to 39.7 nM in [10] and 138 nM in assay [11]. Besides, the “radiolabeled BF227 binding in PD tissue” value in assay [12] was “not detectable”.
Take `O=[N+]([O-])c1ccc2c(c1)Sc1ccccc1N2` [SIL3B]: the Ki amounted to 71.5 nM in assay [1] and 52.3 nM in assay [9].
For the compound `CNc1ccc(/C=C/c2ccc(OCCOCCOCCF)nc2)cc1` [AV-45], the “average Bmax (binding site density) for AV-45 binding in AD brain” value in [13] (AD brain) was 8.8 pmol/mg protein. The Kd in assay [13] (read-out: Kd for AV-45 binding to Aβ plaques) was 3.7 nM.

One may read the Ki as a dissociation constant, usually derived from enzyme kinetics or from competition with a known ligand. For orientation: Kd means a measure of binding affinity in units of concentration.
